SMILES strings stand for the structures.

The record followed here is ChEMBL document CHEMBL1153790, “Scoring function for DNA-drug docking of anticancer and antiparasitic compounds based on spectral moments of 2D lattice graphs for molecular dynamics trajectories” (2009).

A short description of the test: Antiproliferative activity against mouse EAC cells assessed as ratio of ID50 of compound to ID50 of 8-methoxypsoralen. The class given is functional, Ehrlich.
In the case of `COc1c2oc(=O)c(C)cc2cc2c(C)coc12`, the Ratio is 0.89.
Consider `Cc1oc2cc3oc(=O)ccc3cc2c1C`, for which the Ratio is on record as 1.26.
`Cc1cc2cc3c(C)coc3c(C)c2oc1=O`: the Ratio was 1.34.
With `Cc1oc2cc3oc(=O)c(C)cc3cc2c1C`, the Ratio was 1.79.
On to `Cc1oc2ccc3ccc(=O)oc3c2c1C`, for which the Ratio came out at 1.47.
For the compound `Cc1cc2cc3c(C)coc3cc2oc1=O`, the Ratio was determined as 1.01.
For `Cc1cc(=O)oc2nc3occc3cc12` the value was 0.14; for `Cc1oc2nc3oc(=O)ccc3cc2c1C`, 0.18.
`Cc1coc2nc3oc(=O)ccc3cc12`: the Ratio is 0.13.
For `Cc1c(C)c2cc3c(C)coc3cc2oc1=O` the value was 0.34; for `COCc1cc(=O)n(C)c2c1cc(C)c1oc(C)cc12`, 2.09; for `Cc1cc(=O)[nH]c2c1cc(C)c1occ(C)c12`, 4.62.
Next, `O=C(c1cc2ccc3occc3c2oc1=O)N(CCO)CCO`: under 0.01.
Take `CN1CCN(C(=O)c2cc3ccc4occc4c3oc2=O)CC1`: the Ratio was under 0.01.
`O=C(c1ccccc1)c1cc2ccc3occc3c2oc1=O`: the Ratio was under 0.01.
Take `CCN(CC)C(=O)c1cc2ccc3occc3c2oc1=O`: the Ratio was under 0.01.
Consider `O=C(NCCO)c1cc2ccc3occc3c2oc1=O`, for which the Ratio is under 0.01.
Regarding `CCOCCNC(=O)c1cc2ccc3occc3c2oc1=O`, the Ratio is on record as under 0.01.
In the case of `CN(C)CCNC(=O)c1cc2ccc3occc3c2oc1=O`, the Ratio is given as under 0.01.
Next, `NC(=O)c1cc2ccc3occc3c2oc1=O`: 0.05; `O=C(c1cc2ccc3occc3c2oc1=O)N1CCOCC1`: 0.06; `O=C(O)c1cc2ccc3occc3c2oc1=O`: 0.07.
Take `CN(C)C(=O)c1cc2ccc3occc3c2oc1=O`: the Ratio stood at 0.07.
Consider `COC(=O)c1cc2ccc3occc3c2oc1=O`, for which the Ratio was determined as 0.2.
On to `Cc1cc(=O)oc2c1c(C)cc1occ(C)c12`, for which the Ratio is listed as 5.78.
`Cc1cc(=O)[nH]c2c1ccc1occ(C)c12`: the Ratio came out at 0.48.
Turning to `Cc1oc2nc3oc(=O)ccc3c(C)c2c1C`, the Ratio is given as 0.25.
For `Cc1c(C)c2cc3c(C)coc3nc2oc1=O` the value was 0.67; for `Cc1coc2nc3oc(=O)cc(C)c3cc12`, 0.68; for `Cc1coc2nc3oc(=O)ccc3c(C)c12`, 0.97.
`Cc1oc2nc3oc(=O)c(C)c(C)c3cc2c1C`: the Ratio stood at 1.83.
As for `Cc1cc2ccc3occc3c2oc1=O`, the Ratio amounted to 0.2.
Next, `Cc1c(C)c2ccc3occ(C)c3c2oc1=O`: 0.03.
For `Cc1c(C)c2ccc3occc3c2oc1=O`, the Ratio came out at 0.35.
Take `CCOC(=O)c1cc2ccc3occc3c2oc1=O`: the Ratio was 0.4.
In the case of `Cc1cc2c(o1)c(C)cc1c(CO)cc(=O)[nH]c12`, the Ratio came out at 0.66.
Next, `Cc1cc(=O)[nH]c2c1cc(C)c1oc(CO)c(C)c12`: 1.07; `Cc1cc2c(o1)c(C)cc1c(C)cc(=O)[nH]c12`: 1.36; `Cc1oc2nc3oc(=O)cc(C)c3cc2c1C`: 3.66.
On to `CC(=O)c1cc2ccc3occc3c2oc1=O`, for which the Ratio was under 0.01.
On to `COCc1c(C)oc2ccc3c(C)cc(=O)oc3c12`, for which the Ratio is 0.6.
`Cc1coc2cc3oc(=O)cc(CO)c3cc12`: the Ratio amounted to 2.32.
Next, `Cc1cc2c(o1)c(C)cc1c(CO)cc(=O)n(C)c12`: 5.6; `Cc1cc(=O)oc2c1ccc1occc12`: 0.55.
In the case of `Cc1cc2occ(C)c2c2oc(=O)ccc12`, the Ratio turned out to be 5.3.
For `Cc1cc(=O)oc2c1ccc1occ(C)c12`, the Ratio is listed as 5.75.
As to `Cc1oc2c(C)cc3c(C)cc(=O)[nH]c3c2c1C`, the Ratio is reported as 9.25.
In the case of `Cc1cc2c(ccc3ccc(=O)oc32)o1`, the Ratio amounted to 0.8.
On to `Cc1coc2ccc3ccc(=O)oc3c12`, for which the Ratio amounted to 0.81.
Next, `Cc1oc2ccc3c(C)cc(=O)[nH]c3c2c1C`: 2.59.
Next, `Cc1cc2c(ccc3c(C)cc(=O)oc32)o1`: 1.27.
For the compound `O=c1ccc2ccc3occc3c2o1` [ANGELICIN], the Ratio is reported as 0.55.
On to `COc1c2ccoc2cc2oc(=O)ccc12` [BERGAPTEN], for which the Ratio was found to be 0.66.
`COc1c2occc2cc2ccc(=O)oc12` [METHOXSALEN]: the Ratio came to 1.
With `O=c1ccc2cc3ccoc3cc2o1` [PSORALEN], the Ratio is 1.52.
For `Cc1cc2cc3c(C)cc(=O)oc3c(C)c2o1` [TRIOXSALEN], the Ratio turned out to be 27.6.
